Columns and labels:
[1] = test system: native PSMA protein; test: Sandwich ELISA, anti-PSMA antibody titers in serum of vaccinated Pasteur mice; format: in vivo, mouse
Description: The standard sandwich ELISA assay was done using an automated Biotek system. The plates were coated with 25 μl of native PSMA protein at a 1.0 μg/ml in PBS overnight, the plates were washed and blocked with 35 μl/well of 5% FBS 1×PBS-T 0.05% and incubated for 1 hour at RT on a shaker at 600 RPM. The blocking media was decanted and serial dilute vaccinated mouse serum with half log dilutions in 5% FBS 1×PBS-T 0.05% starting at 1:100 or 1:500 were made and 25μ samples of the diluted serum were added to each well of the 96 well plates and incubated for 1 hour at RT on a shaker at 600 RPM. The plates were washed 3 times with 75 ul/well in 1×PBS-T 0.05% using the Biotek ELx405, and 25 μl/well of 1:30,000 diluted anti-mouse IgG HRP (AbCam cat #ab20043) secondary antibody (diluted in 1×PBS-T 0.05%) was added to each well of the 96 well plates and incubated for 1 hour at RT on a shaker at 600 RPM. Plates were washed 5× with 75 ul/well in 1×PBS-T 0.05% using the Biotek EIx405. TMB Substrate was diluted at 1:10 and 25 μl was added to each well and incubated at RT for 30 minutes. The reaction was stopped by adding 12.5 μl/well of 1M H2SO4. Plates were read using the Spectramax Plus at 450 nm wavelength. Data were reported as titers and these could be reported as first positive (average and both values above 5% FBS PBS+3 time Standard Deviation) and/or as calculated titers at OD of 0.5 or 1.0. Serum from irrelevant vaccinated mice were used as negative controls.
Eight- to 10-week old Pasteur mice were immunized using PMED method with the various plasmid DNAs expressing shuffled PSMA modified antigens in a prime/boost/boost regimen, two weeks apart between each vaccination as described in Example 1F. Antigen specific T and B cell responses were measured 7 days after the last immunization in an interferon-gamma (IFNγ) ELISPOT assay and sandwich ELISA respectively.

[2] = test system: human PSMA; test: IFNγ ELISPOT of splenocytes, PSMA DNA constructs by PMED in Pasteur (HLA A2/DR1) mice; format: in vivo, mouse; conditions: positive SFC>50
Description: Two human HLA transgenic mouse models were used to evaluate the presentation of various PSMA antigens by different HLAs and a human PSMA transgenic mouse model was used to assess the breaking of immune tolerance to human PSMA. The first HLA transgenic mouse model utilizes the HLA A2/DR1 mice (from the Pasteur Institute, Paris, France; also referred to as “Pasteur mice”). […] The second HLA transgenic mouse model uses mice that are knock in with human HLA A24 that is covalently linked to the human β-2-microglobulin at the H2bk locus. […] This model allows evaluation of antigen presentation in the context of human HLA A24.
Eight-to-10 week-old transgenic mice were immunized using PMED method with various PSMA DNA constructs in a prime/boost/boost regimen, two weeks apart between each vaccination. Alternatively, mice were primed with adenovirus vectors encoding the PSMA antigen at 1×10^9 viral particles in 50 μl (PBS) by intramuscular injection. The adenovirus vector (pShuttle-CMV vector from Stratagene) was modified to contain NheI and BgIII restriction sites within the multiple cloning site. The DNA encoding human PSMA modified was then restriction digested with NheI and BgIII, ligated into this vector and sequence confirmed. The pShuttle human PSMA modified vector was then recombined with the pAdEasy-1 vector and virus was propagated according to the AdEasy system (Stratagene). Twenty-days later, they were boosted with PMED as described above. In each of the regimens used, antigen specific T cell response was measured 7 days after the last immunization in an interferon-gamma (IFNγ) ELISPOT assay. The ELISPOT assay is similar to the sandwich enzyme-linked immunosorbent assay (ELISA). Briefly, a capture antibody specific to IFNγ BD Bioscience, #51-2525kc) is coated onto a polyvinylidene fluoride (PVDF) membrane in a microplate overnight at 4° C. The plate is blocked with serum/protein to prevent nonspecific binding to the antibody. After blocking, effector cells (such as splenocytes isolated from PSMA immunized mice) and targets (such as PSMA peptides from peptide library, target cells pulsed with peptides or tumor cells expressing the relevant antigens) or mitogen (which will stimulate splenocytes non-specifically to produce IFNγ[…] are added to the wells and incubated overnight at 37° C. in a 5% CO2 incubator. Cytokine secreted by effector cells are captured by the coating antibody on the surface of the PVDF membrane. After removing the cells and culture media, 100 μl of a biotinylated polyclonal anti-mouse IFNγ antibody (0.5 mg/ml-BD Bioscience, #51-1818 kz) was added to each of the wells for detection. The spots are visualized by adding streptavidin-horseradish peroxidase (HRP, BD Bioscience, #557630) and the precipitate substrate, 3-amino-9-ethylcarbazole (AEC), to yield a red color spot. Each spot represents a single cytokine producing T cell. In general, in the studies disclosed here the ELISpot assay was set up as follows: 5×10^5 splenocytes from PSMA immunized mice were cultured (1) in the presence of PSMA specific peptides derived from a PSMA peptide library (see Table 16) made of 15-amino acid peptides overlapping by 11 amino acids, (2) with known HLA A2.1 restricted PSMA specific peptides, or (3) with tumor cells. To measure the recognition of endogenous antigen presentation, splenocytes were cultured with a human HLA A2 prostate cancer cells (i.e. LNCaP, available from ATCC) that naturally express PSMA or cultured with HLA A2 tumor cells transduced with adenovirus encoding and thus expressing the human PSMA modified antigen. In addition, human PSMA ECD protein was added to the ELISpot assay to measure specifically CD4 IFNγ[…] producing cells. For controls where appropriate, HLA A2 restricted HER-2 specific peptide p168-175 or tumor cells not expressing PSMA or irrelevant protein such as BSA were used as a negative control in the IFNγ […]ELISpot assay. […]

Substance: PSMA modified: membrane-bound polypeptide of amino acids 15-750 of human PSMA, SEQ ID NO: 9; tested as DNA construct
- ELISA (OD = 1) Average (+/−SD) ([1]; Table 3, anti-PSMA antibody titer calculated at OD of 1, Pasteur mice): 1067 (518)
- # of positive ([1]; Table 3, mice with anti-PSMA antibody response by ELISA / N): 4/4
- ELISA (OD = 0.5) ([1]; Table 10, anti-PSMA antibody titer calculated at OD of 0.5, Pasteur mice): 1159 (802)
- # of positive ([1]; Table 10, mice with anti-PSMA antibody response by ELISA / mice tested): 7/7
- IFN-γ SFC/1 × 10^6 splenocytes ([2]; Table 2, HLA A2.1 restricted peptide PSMA p275, ( ) = standard deviation): 304 (21) SFC/1 × 10^6 splenocytes
- IFN-γ SFC/1 × 10^6 splenocytes ([2]; Table 2, HLA A2.1 restricted peptide PSMA p627, ( ) = standard deviation): 222 (14) SFC/1 × 10^6 splenocytes
- IFN-γ SFC/1 × 10^6 splenocytes ([2]; Table 2, HLA A2.1 restricted peptide PSMA p662, ( ) = standard deviation): 925.1 (77) SFC/1 × 10^6 splenocytes
- IFN-γ SFC/1 × 10^6 splenocytes ([2]; Table 2, HLA A2.1 restricted peptide PSMA p663, ( ) = standard deviation): 1524.9 (45) SFC/1 × 10^6 splenocytes
- IFN-γ SFC/1 × 10^6 splenocytes ([2]; Table 2, PC3 tumor cells (no PSMA, negative control), ( ) = standard deviation): 1 (1) SFC/1 × 10^6 splenocytes
- IFN-γ SFC/1 × 10^6 splenocytes ([2]; Table 2, PSMA ECD protein, ( ) = standard deviation): 731 (16) SFC/1 × 10^6 splenocytes
- IFN-γ SFC/1 × 10^6 splenocytes ([2]; Table 2, PSMA+ HLA A2.1 LNCaP tumor cells, ( ) = standard deviation): 96 (12) SFC/1 × 10^6 splenocytes
- IFN-γ SFC/1 × 10^6 splenocytes ([2]; Table 2, target peptide PSA p64, ( ) = standard deviation): 2 (4) SFC/1 × 10^6 splenocytes
